Measured values reported in PMC12331936, “Structural Insights into the Protein Mannosyltransferase from Mycobacterium tuberculosis reveal a WW-Domain-Like Protein Motif in Bacteria” (Communications Biology, 2025).

Legend:
[1] = system: D74A MtPMT
[2] = system: D176A MtPMT
[3] = system: R441A MtPMT; format: cell-based, M. tuberculosis

## [N-]=[N+]=[N-].[Na+] [sodium azide]
[1]
  chemical complementation of inactive D74A mutant: ineffective
[2]
  chemical complementation of inactive D176A mutant: ineffective

## CC(=O)[O-].[Na+] [sodium acetate]
[1]
  chemical complementation of inactive D74A mutant: ineffective
[2]
  chemical complementation of inactive D176A mutant: ineffective

## c1c[nH]cn1 [imidazole]
[3]
  restored FasC mannosylation, level of the wild type MtPMT: ~ 25 ± 5%

## Cl.N=C(N)N [guanidine chloride, guanidine hydrochloride]
[3]
  restored FasC mannosylation, level of the wild type MtPMT: ~ 25 ± 5%
